Results published in patent publication US20060165744A1, “Combination liposomal formulations” (NeoPharm, Inc, priority 2003, published 2006).

Assays:
[1] = Percent entrapment of doxorubicin or mitoxantrone in reconstituted LEP (Sephardex G-25 column, UV absorbance); format: physicochemical
Method: Either doxorubicin (0.5 to 1.5 mg/ml) or mitoxantrone (0.5 to 1.5 mg/ml) was dissolved in deionized water, and these solutions were employed to reconstitute the lyophilized LEP cakes. The drug to lipid ratio varied from 1:120 to 1:24 (wt/wt) for doxorubicin and 1:120 to 1:24 (wt/wt) for mitoxantrone. Following reconstitution, the liposomal preparation was subjected to column chromatography using Sephardex G-25 to separate the free doxorubicin or mitoxantrone from the drug bound to the liposomes. The pre and post column samples were solubilized in methanol and the absorbance values were measured at appropriate wavelengths. The absorbance of doxorubicin (480 nm) and mitoxantrone (660 nm) was measured in the formulations both prior to and after column chromatography, and the percent entrapment was calculated using the following equation: % entrapment=[absorbance of drug after column/absorbance of drug before column]×100

[2] = tested on: P388/ADR (Adriamycin-resistant murine leukemia) cells; experiment: Cytotoxicity by sulforhodamine B assay, P388/ADR; format: cell-based; conditions: Mus musculus, treated 48 hrs, read-out: GI50 values (mM) against drug-resistant cancer cell lines
Method: (§1) SKVLB (Vincristine-resistant human ovarian) cells were obtained from Georgetown University and maintained in RPMI 1640 medium containing 10% heat-inactivated FBS, penicillin (100 units/mL) and streptomycin ([…]) with […] Vincristine. P388/ADR (Adriamycin-resistant murine leukemia) cells were purchased from National Cancer Institute (Frederick, Md.) and maintained in RPMI 1640 medium containing 10% heat-inactivated FBS, penicillin (100 units/mL) and streptomycin ([…]). SKVLB cells were cultured in drug-free media for at least a week before studies. The cells (10,000 cells/well for SKVLB and 25,000 cells/well for P388/ADR) were plated in a 96-well plate overnight and treated with doxorubicin, LEP or LEPD for 48 hrs. After incubation, the cytotoxicity was determined by a sulforhodamine B assay.

[3] = tested on: SKVLB (Vincristine-resistant human ovarian) cells; experiment: Cytotoxicity by sulforhodamine B assay, SKVLB; format: cell-based; conditions: treated 48 hrs, read-out: GI50 values (mM) against drug-resistant cancer cell lines
Method: as §1

P388/ADR cells = experiment: Anti-tumor efficacy on tumor bearing mice (increase in lifespan); format: in vivo, CD2F1 female mice; conditions: 1.0 mg/kg DOX, I.V. for five consecutive days
Method: After 24 hours, mice were randomly divided into different treatment groups (5 mice/group) and vehicle controls or test article formulations were administered I.V. for five consecutive days. Injection volume was based on individual mouse body w eight. Mice were weighed prior to dosing on Days 1-5. […] Mean survival time (MST) was determined and the percent increase in lifespan (% ILS) was calculated as follows: % ILS=[(100×MST of Treatment Group)/(MST of Control Group)]−100% ILS≧25% is considered as a positive response.

[4] = Effect of mitoxantrone or doxorubicin loading on entrapment of paclitaxel in LEP-ETU; format: physicochemical
Method: Mitoxantrone or doxorubicin (0.5 to 1.5 mg) was loaded into LEP-ETU.

In the case of COc1cccc2c1C(=O)c1c(O)c3c(c(O)c1C2=O)C[C@@](O)(C(=O)CO)C[C@@H]3O[C@H]1C[C@H](N)[C@H](O)[C@H](C)O1 [Doxorubicin (DOX), doxorubicin], the “DOX % Entrapment UV 480 nm” value ([1]; Initial DOX concentration 0.50 mg/mL) is reported as 93%, the “DOX % Entrapment UV 480 nm” value ([1]; Initial DOX concentration 0.75 mg/mL) is reported as 92% and the “DOX % Entrapment UV 480 nm” value ([1]; Initial DOX concentration 1.00 mg/mL) is reported as 90%. For the same compound, the “DOX % Entrapment UV 480 nm” value ([1]; Initial DOX concentration 1.50 mg/mL) was 78%, the GI50 [2] was 0.015 mM and the GI50 [3] was 0.016 mM. The “% ILS” value (P388/ADR cells) was 18.20%.
For O=C1c2c(O)ccc(O)c2C(=O)c2c(NCCNCCO)ccc(NCCNCCO)c21 [MTO, mitoxantrone], the “MTO % Entrapment UV 660 nm” value ([1]; Initial MTO concentration 0.50 mg/mL) was 97%, the “MTO % Entrapment UV 660 nm” value ([1]; Initial MTO concentration 0.75 mg/mL) was 99% and the “MTO % Entrapment UV 660 nm” value ([1]; Initial MTO concentration 1.00 mg/mL) was 100%. For the same compound, the “MTO % Entrapment UV 660 nm” value ([1]; Initial MTO concentration 1.50 mg/mL) was 101%.
For CC(=O)O[C@H]1C(=O)[C@@]2(C)[C@H]([C@H](OC(=O)c3ccccc3)[C@]3(O)C[C@H](OC(=O)[C@H](O)[C@@H](NC(=O)c4ccccc4)c4ccccc4)C(C)=C1C3(C)C)[C@]1(OC(C)=O)CO[C@@H]1C[C@@H]2O [Paclitaxel, paclitaxel], the “Paclitaxel Entrapment (%) With DOX” value ([4]; Initial DOX 0.50 mg/mL) was 102%, the “Paclitaxel Entrapment (%) With DOX” value ([4]; Initial DOX 0.75 mg/mL) was 102% and the “Paclitaxel Entrapment (%) With DOX” value ([4]; Initial DOX 1.00 mg/mL) was 102%. For the same compound, the “Paclitaxel Entrapment (%) With DOX” value ([4]; Initial DOX 1.50 mg/mL) was 109%.
